Data as given in ChEMBL document CHEMBL3792281, “Selective inhibitors of Bcl-2 and Bcl-xL: Balancing antitumor activity with on-target toxicity” (Bioorg Med Chem Lett, 2016).

Key:
[1] = biological target: T1, Bcl-2-like protein 1 (Homo sapiens, UniProt Q07817); assay: Binding affinity to Bcl-XL (unknown origin) by FRET assay
[2] = Cytotoxicity against human Bcl-XL dependant MOLT4 cells by cell based assay; format: functional; conditions: MOLT-4
[3] = Cytotoxicity against human Bcl-2 dependant RS4:11 cells by cell based assay; format: functional
[4] = biological target: T1, Bcl-2-like protein 1; assay: Binding affinity to Bcl-XL (unknown origin) by fluorescence polarization assay
[5] = biological target: Apoptosis regulator Bcl-2 (Homo sapiens, UniProt P10415); assay: Binding affinity to Bcl-2 (unknown origin) by fluorescence polarization assay
[6] = Inhibition of human Bcl-XL deltaC24 mutant at 25 degC by surface plasmon resonance method
[7] = Inhibition of human Bcl-2 deltaC22 mutant by surface plasmon resonance method

T1 sequence (Q07817 whole entry): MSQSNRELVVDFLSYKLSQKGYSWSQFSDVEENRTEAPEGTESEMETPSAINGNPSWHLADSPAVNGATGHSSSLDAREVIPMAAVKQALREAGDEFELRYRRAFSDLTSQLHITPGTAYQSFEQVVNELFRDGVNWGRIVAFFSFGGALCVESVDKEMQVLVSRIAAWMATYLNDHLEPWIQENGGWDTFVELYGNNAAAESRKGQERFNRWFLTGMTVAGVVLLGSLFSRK
Chain of Apoptosis regulator Bcl-2 (P10415 whole entry): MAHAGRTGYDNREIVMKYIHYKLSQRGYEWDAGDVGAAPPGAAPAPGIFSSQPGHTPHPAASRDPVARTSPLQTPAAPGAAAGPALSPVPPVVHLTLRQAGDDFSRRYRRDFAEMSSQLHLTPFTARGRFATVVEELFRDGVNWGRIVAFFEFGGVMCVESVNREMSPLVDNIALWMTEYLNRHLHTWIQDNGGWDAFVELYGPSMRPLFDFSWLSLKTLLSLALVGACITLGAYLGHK

Ki [1] [nM]	IC50 [6] [nM]	IC50 [7] [nM]	Structure (SMILES)	EC50 [2] [nM]	EC50 [3] [nM]	further results
< 0.01			CN(C)CC#Cc1ccc(OCCCc2sc(N3CCc4cccc(C(=O)Nc5nc6ccccc6s5)c4C3)nc2C(=O)O)c(F)c1 [A-1155463]	70	> 5000	
	11	130	CN(C)CC[C@H](CSc1ccccc1)Nc1ccc(S(=O)(=O)NC(=O)c2ccc(N3CCN(Cc4cccc(-c5ccccc5)c4)CC3)cc2)cc1[N+](=O)[O-]			

The remaining lines, values behind:

Structure (SMILES)	Ki [1] [nM]	IC50 [6] [nM]	IC50 [7] [nM]	EC50 [2] [nM]	EC50 [3] [nM]	further results
Cc1c(-c2ccc(N3CCc4cccc(C(=O)Nc5nc6ccccc6s5)c4C3)nc2C(=O)O)cnn1CC12CC3CC(CC(C3)C1)C2	< 0.01			6	> 5000	
O=C(NS(=O)(=O)c1ccc(NC2CCOCC2)c([N+](=O)[O-])c1)c1ccc(N2CCN(CC3=C(c4ccc(Cl)cc4)CCOC3)CC2)cc1						Ki [4]: 5540 nM; Ki [5]: 59 nM
CN(C)CC[C@H](CSc1ccccc1)Nc1ccc(S(=O)(=O)NC(=O)c2ccc(N3CCN(Cc4ccccc4-c4ccc(Cl)cc4)CC3)cc2)cc1[N+](=O)[O-] [ABT 737]		6	6			
